One data set addresses T1, mouse PPARα (Mus musculus, UniProt P23204).
T1 construct: expressed in transfected cells; host or cells: CV-1 (monkey kidney) cells, transient transfection
T1 sequence (P23204 159-468): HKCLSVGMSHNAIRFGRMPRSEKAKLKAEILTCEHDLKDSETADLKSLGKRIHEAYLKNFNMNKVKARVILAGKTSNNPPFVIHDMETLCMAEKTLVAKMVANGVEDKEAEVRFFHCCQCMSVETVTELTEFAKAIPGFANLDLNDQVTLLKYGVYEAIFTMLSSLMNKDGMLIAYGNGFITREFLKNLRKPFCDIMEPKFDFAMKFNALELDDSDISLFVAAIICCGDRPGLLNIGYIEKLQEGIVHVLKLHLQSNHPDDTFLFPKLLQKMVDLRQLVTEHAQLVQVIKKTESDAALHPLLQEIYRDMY
Kind of data set: PPAR-GAL4 transactivation assay in transiently transfected CV-1 cells. Format: cell-based. To be noted: PPAR-GAL4 chimeric receptor, read-out: EC50(nM) mPPARα. How it is done:
To assess the functional transcriptional activity of these compounds, cell-based assays using chimeric receptor Gal4 DNA-binding domain (DBD)-NR ligand binding domain cotransfection assay (LBDs of PPARα, PPARγ, and PPARδ) were performed. As an initial screen to determine the PPARα activity and selectivity, all compounds were evaluated for in vitro potency and selectivity by transfection testing, using CV-1 cells transfected with human and mouse PPARs. MH100×4 is a luciferase reporter with four copies of a GAL4 UASG response element, where GAL-I refers to the ligand-binding domain of the indicated receptor fused to the C-terminus of the GAL4 DNA-binding domain. Assays were performed using a Biomek automated workstation in which the genes for the nuclear receptor, as well as a plasmid containing a response element upstream of a luciferase cDNA, are transfected into CV-1 cells. Compounds were evaluated for their ability to activate human and mouse PPARs at […] test concentrations. […] The transactivation activity of the series of compounds (DY121-132, 10a-g) toward PPARα was expressed as EC50, which is the concentration of the test compound that affords half-maximum activity, as summarized in Table 1.
In vitro binding and transfection studies. As an initial screen to determine the PPARα, PPARγ, and PPARδ activity, all compounds were evaluated for in vitro potency and selectivity by transfection testing, using CV-1 cells transfected with human and mouse PPARs. MH100×4 is a luciferase reporter with four copies of a GAL4 USAG response element, where GAL-I refers to the ligand-binding domain of the indicated receptor fused to the C-terminus of the GAL4 DNA-binding domain. Assays were performed using a Biomek automated workstation in which the gene for the nuclear receptor, as well as a plasmid containing a response element upstream of a luciferase cDNA, are transfected into CV-1 cells. Compounds were evaluated for their ability to activate human PPARs at 1, 2.5, 3, and 5 uM test concentrations.
Compounds were screened for agonist activity towards PPAR-GAL4 chimeric receptors in transiently transfected CV-1 cells as described. EC50 is the concentration of test compound that gave 50% maximum efficacy.

Data set [1] is described as follows: Body weight and food intake of treated mice. Format: in vivo. As for the experimental part: Next, we would like to investigate the therapeutic potential of DY121 to see if it could be candidate for treating NAFLD/NASH. Note that the pathogenesis of NASH has not yet been fully elucidated so far; however, the ‘two-hit’ theory is widely accepted. The first hit is the accumulation of fatty acids in the liver to cause steatosis. […] The newly produced PPARα agonist DY121 and its analogs, as well as WY100=WY14643 and GW3 (GW7647), were evaluated in C57Bl/6J female mice for their ability to alter serum triglyceride, liver gene expression, and glucose. Fibric acid derivatives (100 mg/kg/day) was used as a control, WY100 (WY14, 643, 100 mg/kg/day), GW3 (GW7647-positive control, 3 mg/kg/day), DY121 (˜3 mg/kg/day), respectively. DY series compounds and controls administered once to C57Bl/6J female mice at 8 weeks of age. Mice were treated at 3 mg/kg for all compounds except WY14643 (100 mg/kg).

A further data set deals with C57Bl/6J female mice. Description: Serum triglyceride and lipid effects in C57Bl/6J female mice. It is filed as in vivo.

The record followed here is patent US20190077774A1, “PEROXISOME PROLIFERATOR-ACTIVATED RECEPTOR AGONISTS” (City of Hope, priority 2017, published 2019).

Entries after “also recorded” stand apart in the source; their conditions may differ.

The term EC50 denotes the concentration needed to bring the measured effect to its halfway point. `COc1ccc(Cn2c(CCCc3ccc(OC(C)(C)C(=O)O)cc3)nn(Cc3ccc(C)cc3)c2=O)cc1` [10a, 2-(4-{3-[4-(4-Methoxy-benzyl)-1-(4-methyl-benzyl)-5-oxo-4,5-dihydro-1H[1,2,4]triazol-3-yl]-propyl}-phenoxy)-2-methyl-propionic acid]: the half-maximal effective concentration (EC50) at mouse PPARα is 3 nM. Further, the body weight entry in data set [1] (24 h vs 72 h (FIG. 8)) is given as “unaffected”. Further, the “body weights and food intake” value in data set [1] (vs control group) was “no significant differences”. Besides, the “triglycerides, time course” value in the data set with C57Bl/6J female mice (24 h vs 72 h, wild type and PPARα-knockout mice (FIG. 8)) was “maintained over 72 h in wild type but not PPARα-knockout mice”. For the same molecule, in the data set with C57Bl/6J female mice (7 day period (FIG. 10)), the “triglycerides, chronic treatment” value is “suppressed triglycerides over the entire 7 day period”. Moreover, in the data set with C57Bl/6J female mice (FIG. 7, listed as DY121), the “dose-response of triglyceride suppression” value is reported as “Dose-response suppression; also recorded: dose-dependent anti-dyslipidemic effects”. In the data set with C57Bl/6J female mice (FIG. 14 and 15), the “FFA and glycerol time course” value was “early increase (lipolytic burst) followed by decline”.
